Measured values from patent US11529343B2, “Compositions and methods for identifying and treating dystonia disorders” (DUKE UNIVERSITY, priority 2015, dated 2022).

Legend:
[1] = system: CreP; assay: Western blot, CreP abundance in EGFP-ΔE Torsin1a expression assay cell line; type: cell-based, human; conditions: increasing concentration
Description: (§1) Cells were harvested in RIPA buffer [150 mM NaCl/50 mM NaH2PO4/2 mM EDTA/1% Triton X-100/0.5% SDS/0.5% deoxycholic acid/50 mM NaF/10 mM Na4P2O7/1 mM Na3VO4/1× phosphatase inhibitor cocktail (Sigma #P5726)/1× cOmplete Mini EDTA-free protease inhibitor cocktail (Roche #04693159001)]. Total protein concentrations were assessed by BCA assay (Thermo Fisher Scientific #23225). Proteins were resolved on 4-15% TGX gels (Bio-Rad #5671085), transferred to nitrocellulose membrane, blocked in TBS-T+5% non-fat dry milk, and probed as indicated. (Primary antibodies employed in the examples of the disclosure are presented in Table 4.) ATF4 expression was normalized to […] expression. N=3 independent control cells lines and 4 independent DYT1 cell lines, 3 replicates each.
(§2) Western blot analyses were conducted to determine the effect of Lopinavir on ATF4, CreP, pEIF2-alpha, and β-actin abundance in EGFP-ΔE Torsin1a expression assay cell lines. […] This down regulation of CreP is in keeping with the HIV protease inhibitor mediated CreP regulation. (See De Gassart et al. PNAS 2015.)

[2] = system: Flp-In T-REx 293 cells inducibly expressing delta-E Torsin1a; assay: Cytotoxicity (cell count, cellular morphology) in the Torsin1a assay cell line; type: cell-based, human
Description: (§3) In order to test this model directly, the delta-E Torsin1a cell line was treated with compounds targeting the eIF2-alpha signaling pathway (FIG. 2). […] The following day, serial drug dilutions were prepared at 2× final concentration in assay media containing 10 μg/mL tetracycline and 30 μL of the drug/tetracycline mixture was added to the appropriate wells, while control wells received 30 μL of assay media alone or assay media+10 μg/mL tetracycline (final tetracycline concentration for all wells except negative controls: 5 μg/mL). Cells were then incubated at 37° C./5% CO^2 for 48 hours and fixed, permeabilized, Hoechst stained, and imaged as described above. The range of the Torsin1a localization effect was normalized to the percentage of cells with puncta in vehicle-treated delta-E cell line as the maximum and that in WT cell line as the minimum (FIG. 2, panels c-h). Cell count and EGFP-Torsin1a expression were normalized to their respective values in the vehicle-treated delta-E cell line as the maximum. All dose response data are the average of 4 independent experiments per dose. Untreated control data used for normalization are the average of 24 independent experiments.
Efficacy is calculated as the magnitude of the pathology correction relative to the mutant Torsin1a pathology. For example an efficacy=−100% would be equivalent to the WT TorsinA phenotype, and 0% would be equivalent to the Mutant TorsinA phenotype. CCv2 refers to the dose response Curve Class annotation, and AC refers to Active Concentration.

[3] = system: luciferase secretion; assay: C.Luc. Secretion Assay; type: cell-based; conditions: orthogonal assays
Description: We tested each shRNA for its ability to rescue a previously described defect in luciferase secretion. Chen, P. et al. (2010) Hum. Mol. Genet. 19, 3502-15; Cao, S. et al. (2010) Dis. Model Mech. 3, 386-96; Barrows, N. J., et al., (2010) J. Biomol. Screen. 15, 735-47.) DYT1 patient data were obtained from 4 independent patient-derived lines and WT data (black bar) from 3 normal healthy control lines. Each line was tested in 5 independent experiments that included 4 technical replicates each (with the exception of SCD data from 3 independent experiments).
(Cao, S. et al. (2010) Dis. Model. Mech. 3, 386-96.) Subsequent testing of additional HIV protease inhibitors supported the activity of this class of compounds and generated favorable structure-activity relationship (SAR) data from which to design improved compounds (Tables 5 and 6). The results with a subset of compounds were also observed in a Luciferase secretion assay (Tables 5 and 6).

[4] = system: pEIF2-alpha; assay: Western blot, phosphorylation of EIF2-alpha in EGFP-ΔE Torsin1a expression assay cell line; type: cell-based, human; conditions: increasing concentration
Description: as §1, §2

[5] = system: ATF4; assay: Western blot, ATF4 abundance in EGFP-ΔE Torsin1a expression assay cell line; type: cell-based, human; conditions: increasing concentration
Description: as §1, §2

[6] = system: delta-E Torsin1a localization; assay: Delta-E Torsin1a mislocalization assay (% cells with EGFP puncta, high-content imaging); type: cell-based, human
Description: To limit variation in expression levels associated with random integration or transient expression, single copies of either WT or delta-E human TOR1A cDNAs with N-terminal EGFP fusions were inserted at the FRT site in Flp-In™ T-Rex™ 293 cells (Thermo Fisher Scientific #R780-07) via flippase recombinase-mediated cassette exchange according to the manufacturer's recommended protocols.
The cells were maintained at 37° C./5% CO2. All experiments were performed on cells with fewer than 5 passages.
Torsin1a expression was also controlled by tetracycline induction to avoid selective pressure modifying the cellular phenotypes. […] The mutant phenotype was measured as the percentage of cells with one or more EGFP puncta using automated high-content imaging analysis (see infra).
The image analysis algorithm was developed using the Cellomics ArrayScan V CompartmentAnalysisV2 protocol. Hoechst's nuclear staining (Ch1: excitation 350 nm; emission 461 nm) was used for focusing and for cell identification by nuclear size, shape, and intensity. […] Detected cells were gated according to nuclear area, length-to-width ratio, and perimeter-to-area ratio. For the purpose of analysis, cell bodies were defined by a radius of 10 μm from the outer edge of the defined nucleus. Overlapping cells were automatically segmented according to the Cellomics ArrayScanV CompartmentAnalysisV2 object segmentation feature. EGFP fluorescence (Ch2: excitation 488 nm; emission 509 nm) was used for puncta detection. […] Torsin a puncta were identified using the spot detection feature of the Compartmental AnalysisV2 protocol. The percentage of cells containing one or more puncta was used as the primary metric in this assay.
as §3

Structure (SMILES): Cc1cccc(C)c1OCC(=O)N[C@@H](Cc1ccccc1)[C@@H](O)C[C@H](Cc1ccccc1)NC(=O)[C@H](C(C)C)N1CCCNC1=O [Lopinavir]
- steady state levels of CreP [1]: down-regulation of steady state levels
- steady state levels of CreP ([1]; listed as lopinavir): decreases CReP abundance
- Cytotox Efficacy [2]: −69.87%
- Cytotox Max Resp [2]: −55.19%
- Cytotox CC-v2 (dose response Curve Class) ([2]; curve class per Inglese et al. 2006): −3
- effect on secretory deficits, in words [3]: corrected secretory deficits
- phosphorylation of EIF2-alpha [4]: increases phosphorylation of EIF2-alpha
- ATF4 abundance [5]: increases phosphorylation of EIF2-alpha and ATF4 abundance in a dose dependent manner
- Emax ([6]; Homo sapiens, delta-E Torsin1a assay cell line, read-out: ΔE TorsinA Mislocalization Assay Localization Max Efficacy): 70%
- effect on delta-E Torsin1a localization (cells with puncta), in words ([6]; dose response, delta-E cell line): corrected TorsinA localization in a dose-dependent fashion
